Data taken from patent US20150071918A1, “PEPTIDES FOR THE TREATMENT OF CANCER” (H. LEE MOFFITT CANCER CENTER AND RESEARCH INSTITUTE, INC., priority 2012, published 2015).
*1 amine or outer side, *2 acyl side, *3 side chain or, on linkers, in order; H or OH if unused. Where a SMILES comes first, the peptide text is derived from it. Bridges are numbered along the chain shown (N, C = ends). [ ]: non-standard residue; d: D form. The star is where a group is joined. dProlinol(O-CH2CO) = O=C(COC[C@H]1CCCN1[*:1])[*:2]; N(2-Aminoethyl)Gly = O=C(CN(CCN[*:3])[*:1])[*:2]; Nle = CCCC[C@H](N)C(=O)O; Ms = CS(=O)(=O)*

Legend:
Assay type in all cases: cell-based
NB4 = assay: HM-27 induced cell death in AML cell line, TO-PRO-3 staining and FACS
Method: (§1) FIGS. 42A-42B. […] U937, HL-60 and NB4 cells were treated with varying doses of HM-27 for 24 hr and cell death was determined as described in Materials and Methods. U937 and NB4 cells (150,000) exposed to HM-27 for 24 h were collected and analyzed for Caspase 3 activity using the FITC Active Caspase-3 Apoptosis Kit (BDPharmingen) as per manufacturer's instructions. All figures are a representative of three independent experiments done in triplicates.
(§2) Cells were collected after incubation with HM-27 and analyzed for markers of cell death indicative of either apoptosis, autophagy or necrosis. BM-MNCs were isolated from marrow aspirates of AML patients and normal individuals by Ficoll-Paque centrifugation and further enriched for CD34+ cells using immunomagnetic beads. Cell death was assessed by TO-PRO-3 staining followed by FACS analysis.

HL-60 = assay: as above
Method: as §1, §2

U937 = assay: as above
Method: as §1, §2

[1] = test system: U937 cells co-cultured with HS-5/GFP cells; assay: Co-culture bone marrow stroma (HS-5/GFP) model of drug resistance (CAM-DR), annexin V and FACS; conditions: HS-5/GFP co-culture 24 hours prior to drug
Method: FIGS. 63A-63C. MTI-101 induces cell death in AML cell lines without succumbing to CAM-DR. HS-5/GFP cells were co-cultured with U937 cells for 24 hours prior to addition of 100 nM Mitoxantrone (FIG. 63A) or varying concentrations of MTI-101 (FIG. 63B). […] Cell death was measured in the GFP negative AML cells using annexin V to detect dead cells and FACS analysis. Cells cultured in suspension were used as a reference sample for drug sensitivity.

[2] = test system: lung cancer (LC) cell lines; assay: High-throughput CellTiter-Blue cell viability assay in lung cancer cell lines; conditions: IC50 values shown only in figure
Method: FIG. 35 is a graph showing IC-50 levels of 24 lung cancer (LC) cell lines treated with cyclized HYD1 (MTI-101). The activity of c-HYD1 was screened using a high-throughput CellTiter-Blue cell viability assay. Cell viability was assessed by the ability of the remaining viable cells to bioreduce resazurin to resorufin. Resazurin is dark blue in color and has little intrinsic fluorescence until it is reduced to resorufin (579 nm Ex/584 nm Em). The change in fluorescence was measured with a Synergy 4 microplate reader (Bio-Tek Instruments, Inc.). […] IC50s were determined as the concentration of drug required for 50% reduction in growth/viability. Shown is the mean IC50 value for each lung cancer cell line tested. Experiments were repeated 2-3 times.
FIG. 67. […] IC50 values were calculated from survival curves and the mean value is represented (n=2 independent experiments).

CCCC[C@@H]1NC(=O)CN(S(C)(=O)=O)CCNC(=O)[C@H](CCCCN)NC(=O)[C@H](CC(C)C)NC(=O)[C@H](CCCCN)NC(=O)[C@H](CC(C)C)NC(=O)[C@H](CCCCN)NC(=O)COC[C@H]2CCCN2C(=O)[C@H](Cc2c[nH]c3ccccc23)NC(=O)[C@H](C)NC(=O)[C@H](C(C)C)NC(=O)[C@H](C(C)C)NC1=O [MTI-101] (Ms-[N(2-Aminoethyl)Gly][Nle]VVAW[dProlinol(O-CH2CO)]KLKLK; lactam 1-C)
IC50 (NB4): 65 µM | IC50 (HL-60): 76.2 µM | IC50 (U937): 38.5 µM | sensitivity in co-culture versus suspension [1]: not resistant in the co-culture bone marrow stroma model of drug resistance | growth of lung cancer cell lines [2]: inhibits the growth of several lung cancer cell lines
